{"source": "patent US20250092085A1", "about": "“SAPONIN-BASED ADJUVANTS AND VACCINES” (ASOCIACIÓN CENTRO DE INVESTIGACIÓN COOPERATIVA EN …, priority 2021, published 2025)", "system": "anti-OVA IgG antibody response (chicken ovalbumin (OVA) as model antigen)", "test": "In vivo experiment 1: adjuvant activity, anti-OVA IgG antibody production (ELISA of mouse sera)", "parameters": "species or system C75BL6 mice", "details": "toxin-free OVA 20 μg + adjuvant 50 μg, three bi-weekly subcutaneous injections, endpoint sera day 42; compared with OVA alone and OVA + prior art compound 13", "experimental": "Total IgG values were calculated using chicken ovalbumin (OVA) as a model antigen for four groups of mice treated with the following subcutaneous injections: i) toxin-free OVA antigen (20 μg) in combination with the known QA-based adjuvant 13 (50 μg) (identified as QA+OVA), ii) toxin-free OVA antigen (20 μg) in combination with the new adjuvant 25 (50 μg) (identified as QA(oxime)+OVA), iii) toxin-free OVA (20 μg) alone as no-adjuvant control group (identified as OVA) and iv) PBS only as negative control (identified as PBS).\nQuantification of antibody production. Antibody titers against OVA protein, or against MUC1 and TnMUC1 peptides in the case of the self-adjuvanting vaccine constructs. were measured by an indirect enzyme-linked immunosorbent assay (ELISA). […] Absorbance (OD, 450 nm) was immediately measured using a BioTek® Synergy HT multi-detection microplate reader.\nA straightforward proof-of-principle in vivo experiment was carried out to directly compare the adjuvant activities of prior art compound 13 and the compound of the invention 25 in terms of IgG antibody production, using chicken ovalbumin (OVA) as a model antigen. […] Endpoint sera after three immunizations were probed via ELISA assays by coating 96-well plates with toxin-free OVA (0.5 μg/ml) and total IgG optical density (OD) values (day 42) were calculated (FIG. 4)."}
{"smiles": "C[C@H]1O[C@@H](OC2C(OC(=O)[C@]34CCC(C)(C)CC3C3=CCC5C6(C)CC[C@H](O)C(C)(C=NO)[C@@H]6CC[C@@]5(C)[C@]3(C)C[C@@H]4O)O[C@H](CO)[C@H](NC(=O)CCCCCCCCCCC(=O)O)C2O)C(O)C(O)[C@H]1O[C@@H]1OC[C@@H](O)C(O)C1O", "note": "(stereo partly shown) [Compound 25]", "values": [{"measurement": "anti-OVA IgG antibody response (total IgG optical density values)", "value": "significantly higher"}]}
